# Key:
# [1] = tested on: FAB1 TDP-43 yeast strain; assay: Propidium iodide viability assay in FAB1 TDP-43 control yeast strain; format: cell-based; conditions: FAB1 TDP-43 yeast model
# Excerpt: (§1) Generation of TDP-43 yeast model expressing human PIKfyve. Human PIKFYVE (“entry clone”) was cloned into pAG416GPDccdB (“destination vector”) according to standard Gateway cloning protocols (Invitrogen, Life Technologies). The resulting pAG416GPD-PIKFYVE plasmids were amplified in E. coli and plasmid identity confirmed by restriction digest and Sanger sequencing. Lithium acetate/polyethylene glycol-based transformation was used to introduce the above PIKFYVE plasmid into a BY4741 yeast strain auxotrophic for the ura3 gene and deleted for two transcription factors that regulate the xenobiotic efflux pumps, a major efflux pump, and FAB1, the yeast ortholog of PIKFYVE (MATa, snq2::KILeu2; pdr3::Klura3;pdrl::NATMX; fab1::G418^R, his3;leu2;ura3;met15;LYS2+) (FIG. 2). Transformed yeast were plated on solid agar plates with complete synthetic media lacking uracil (CSM-ura) and containing 2% glucose. Individual colonies harboring the control or PIKFYVE TDP-43 plasmids were recovered. A plasmid containing wild-type TDP-43 under the transcriptional control of the GAL1 promoter and containing the hygromycin-resistance gene as a selectable marker was transformed into the fab1::G418^R pAG416GPD-PIKFYVE yeast strain (FIG. 1). Transformed yeast were plated on CSM-ura containing 2% glucose and 200 μg/mL […] after overnight recovery in media lacking antibiotic. Multiple independent isolates were further evaluated for cytotoxicity and TDP-43 expression levels.
# (§2) Viability Assay. A control yeast strain with the wild-type yeast FAB1 gene and TDP-43 (“FAB1 TDP-43”, carries empty pAG416 plasmid), and the “PIKFYVE TDP-43” yeast strain, were assessed for toxicity using a propidium iodide viability assay. Both yeast strains were transferred from solid CSM-ura/2% glucose agar plates into 3 mL of liquid CSM-ura/2% glucose media for 6-8 hours at 30° C. with aeration. Yeast cultures were then diluted to an optical density at 600 nm wavelength (OD600) of 0.005 in 3 mL of CSM-ura/2% raffinose and grown overnight at 30° C. with aeration to an OD600 of 0.3-0.8. Log-phase overnight cultures were diluted to OD600 of 0.005 in CSM-ura containing either 2% raffinose or galactose and 150 μL dispensed into each well of a flat bottom 96-well plates. Compounds formulated in 100% dimethyl sulfoxide (DMSO) were serially diluted in DMSO and 1.5 μL diluted compound transferred to the 96-well plates using a multichannel pipet. Wells containing DMSO alone were also evaluated as controls for compound effects. Tested concentrations ranged from 15 μM to 0.11 μM. Cultures were immediately mixed to ensure compound distribution and covered plates incubated at 30° C. for 24 hours in a stationary, humified incubator.
# (§3) Upon the completion of incubation, cultures were assayed for viability using propidium iodide (PI) to stain for dead/dying cells. A working solution of PI was made where, for each plate, 1 μL of 10 mM PI was added to 10 mL of CSM-ura (raffinose or galactose). The final PI solution (50 μL/well) was dispensed into each well of a new round bottom 96-well plate. The overnight 96-well assay plate was then mixed with a multichannel pipet and 50 μL transferred to the PI-containing plate. This plate was then incubated for 30 minutes at 30° C. in the dark. A benchtop flow cytometer (Miltenyi MACSquant) was then used to assess red fluorescence (B2 channel), forward scatter, and side scatter (with following settings: gentle mix, high flow rate, fast measurement, 10,000 events). Intensity histograms were then gated for “PI-positive” or “PI-negative” using the raffinose and galactose cultures treated with DMSO as controls. The DMSO controls for raffinose or galactose-containing cultures were used to determine the window of increased cell death and this difference set to 100. All compounds were similarly gated and then compared to this maximal window to establish the percent reduction in PI-positive cells.
# [2] = tested on: PIKFYVE TDP-43 yeast strain; assay: Propidium iodide viability assay in PIKFYVE TDP-43 yeast strain; format: cell-based; conditions: PIKFYVE TDP-43 yeast model
# Excerpt: as §1, §2, §3
structure (smiles),measurement,setting,value
Cc1cccc(/C=N/Nc2nc(N3CCOCC3)c3nc(-c4ccncc4)n(C)c3n2)c1 [drawing 294],FAB1 TDP-43 (active/inactive),[1],Inactive
same,PIKfyve TDP-43 (active/inactive),[2],Active

# From patent US20240208964A1, “PYRIDOPYRIMIDINES AND METHODS OF THEIR USE” (PYRIDOPYRIMIDINES AND METHODS OF THEIR USE, priority 2020, published 2024)
